In patent publication US12559461B2, “Antibiotic adjuvant compounds” (UNIVERSITY OF NOTRE DAME DU LAC, priority 2020, dated 2026):
Read-outs that look alike come from different tables or passages of the source.

What was measured:
Assay type in all cases: cell-based, Acinetobacter baumannii
AB5075 [1] = test: Broth microdilution clarithromycin (CLR) potentiation and dose-response of adjuvant
Protocol: (§1) Bacterial Strains and Antimicrobial Agents. Acinetobacter baumannii clinical isolate 5075 was obtained from Dr. Colin Manoil at the University of Washington. Colonies were grown on lysogeny broth (LB) agar. Cation-adjusted Mueller-Hinton Broth (CAMHB) (catalog number 212322) were purchased from BD Diagnostics. LB broth was purchased from Fisher Scientific (catalog number BP9722-2). […] Colistin sulfate salt (catalog number C4461) was purchased from Sigma Aldrich. All assays were completed in duplicate and repeated at least two separate times. All compounds were dissolved as their HCl salts in molecular biology grade DMSO as 10 or 100 mM stock solutions and stored at −20° C. Colistin was dissolved in sterile water while clarithromycin was dissolved in molecular biology grade DMSO.
(§2) Broth microdilution method for antibiotic potentiation. Day cultures (6 h) of bacteria in CAMHB were subcultured to 5×10^5 CFU/mL in CAMHB. Aliquots (4 mL) were placed in culture tubes and dosed with compound from 10 mM stock samples to give the desired concentration of the compound to be tested against the particular bacterial strain; this insured non-toxic DMSO concentrations ≤0.3% in each well. 1 mL of the resulting solution was placed in a separate culture and dosed with antibiotic at the highest concentration to be tested. Bacteria treated with antibiotic alone served as the control. Row one of a 96-well plate was filled with 200 μL of the antibiotic/2-AI solution, and rows 2-12 were filled with 100 μL each of the remaining 4 mL of bacterial subculture containing adjuvant at the desired concentration, except for the control lane which contained only bacterial subculture. Row one was then mixed five times, and 100 μL was transferred to row two, which was then mixed five times before being transferred to row three. This process was repeated until all rows had been mixed, except for row twelve which would have only 2-AI to serve as a control to monitor potential toxicity. The 96-well plate was then covered in Glad Press n'Seal and incubated under stationary conditions at 37° C. for 16 h. MIC values were determined as the lowest concentration at which no bacterial growth was observed, and fold reductions were determined by comparison to antibiotic control lane.
Dose-response of Adjuvant Assay. The procedure for ‘broth microdilution method for antibiotic potentiation’ was followed using 4 mL aliquots of adjuvant at various concentrations: 0, 5, 7.5, 10, 15, 20, 25, and 30 μM.

AB5075 [2] = test: Broth microdilution MIC of compound alone (standalone toxicity); settings: Acinetobacter baumannii
Protocol: as §1
(§3) Broth microdilution method for MIC determination. Day cultures (6 h) of each bacterial strain in cation adjusted Mueller Hinton II broth (CAMHB, Fisher Scientific U.S.) were subcultured to 5×10^5 CFU/mL in CAMHB. Aliquots (1 mL) were placed in culture tubes and compound was added from 10 mM stock samples in DMSO, such that compound concentration equaled highest concentration tested (200 μM). Samples were then aliquoted (200 μL) into the first wells of a 96-well plate, with all remaining wells being filled with 100 μL of initial bacterial subculture. Row one wells were mixed five times, before 100 μL was transferred to row two. Row two was then mixed five times, and 100 μL was transferred to row three. This process was repeated until the final row had been mixed; this served to serially dilute the compound. Plates were then covered with GLAD Press n'Seal and incubated under stationary conditions at 37° C. for 16 h. MIC values were then recorded as the lowest concentration at which no bacterial growth was observed.

[3] = system: A. baumannii isolates (23 strains); test: Minimum inhibitory concentration against AB isolates; settings: Acinetobacter baumannii, compound alone, read-out: Minimum inhibitory concentration of compound
Protocol: as §3

[4] = system: A. baumannii isolates (23 strains); test: Clarithromycin potentiation against AB isolates; settings: adjuvant at 7.5 μM
Protocol: as §2

- CLR MIC (AB5075 [1]; compound tested at 5 μM): 4 µg/mL
- Fold Reduction of CLR MIC (AB5075 [1]; compound tested at 5 μM): 8 fold
- CLR MIC (AB5075 [1]; compound tested at 7.5 μM): 0.25 µg/mL
- Fold Reduction of CLR MIC (AB5075 [1]; compound tested at 7.5 μM): 128 fold
- CLR MIC (AB5075 [1]; compound tested at 15 μM): 0.125 µg/mL
- Fold Reduction of CLR MIC (AB5075 [1]; compound tested at 15 μM): 256 fold
- MIC ([3]; A. baumannii strain 3560): 25 µM
- MIC ([3]; A. baumannii strain 3785): 50 µM
- MIC ([3]; A. baumannii strain 3806): 25 µM
- MIC ([3]; A. baumannii strain 3927): 100 µM
- MIC ([3]; A. baumannii strain 4025): 100 µM
- MIC ([3]; A. baumannii strain 4026): 50 µM
- MIC ([3]; A. baumannii strain 4027): 50 µM
- MIC ([3]; A. baumannii strain 4052): 50 µM
- MIC ([3]; A. baumannii strain 4269): 50 µM
- MIC ([3]; A. baumannii strain 4448): 100 µM
- MIC ([3]; A. baumannii strain 4456): 25 µM
- MIC ([3]; A. baumannii strain 4490): 100 µM
- MIC ([3]; A. baumannii strain 4498): 50 µM
- MIC ([3]; A. baumannii strain 4795): 25 µM
- MIC ([3]; A. baumannii strain 4857): 50 µM
- MIC ([3]; A. baumannii strain 4878): 50 µM
- MIC ([3]; A. baumannii strain 4957): 50 µM
- MIC ([3]; A. baumannii strain 4991): 50 µM
- MIC ([3]; A. baumannii strain 5001): 50 µM
- MIC ([3]; A. baumannii strain 5197): 25 µM
- MIC ([3]; A. baumannii strain 5256): 25 µM
- MIC ([3]; A. baumannii strain 5711): 25 µM
- MIC ([3]; A. baumannii strain 8967): 100 µM
- CLR MIC + adjuvant ([4]; A. baumannii strain 3560): 1 µg/mL
- CLR MIC + adjuvant ([4]; A. baumannii strain 3785): 1 µg/mL
- CLR MIC + adjuvant ([4]; A. baumannii strain 3806): 0.25 µg/mL
- CLR MIC + adjuvant ([4]; A. baumannii strain 3927): 0.5 µg/mL
- CLR MIC + adjuvant ([4]; A. baumannii strain 4025): 1 µg/mL
- CLR MIC + adjuvant ([4]; A. baumannii strain 4026): 1 µg/mL
- CLR MIC + adjuvant ([4]; A. baumannii strain 4027): 1 µg/mL
- CLR MIC + adjuvant ([4]; A. baumannii strain 4052): 0.5 µg/mL
- CLR MIC + adjuvant ([4]; A. baumannii strain 4269): 2 µg/mL
- CLR MIC + adjuvant ([4]; A. baumannii strain 4448): 0.5 µg/mL
- CLR MIC + adjuvant ([4]; A. baumannii strain 4456): 1 µg/mL
- CLR MIC + adjuvant ([4]; A. baumannii strain 4490): 1 µg/mL
- CLR MIC + adjuvant ([4]; A. baumannii strain 4498): 2 µg/mL
- CLR MIC + adjuvant ([4]; A. baumannii strain 4795): 0.5 µg/mL
- CLR MIC + adjuvant ([4]; A. baumannii strain 4857): 0.5 µg/mL
- CLR MIC + adjuvant ([4]; A. baumannii strain 4878): 0.5 µg/mL
- CLR MIC + adjuvant ([4]; A. baumannii strain 4957): 0.5 µg/mL
- CLR MIC + adjuvant ([4]; A. baumannii strain 4991): 0.5 µg/mL
- CLR MIC + adjuvant ([4]; A. baumannii strain 5001): 1 µg/mL
- CLR MIC + adjuvant ([4]; A. baumannii strain 5197): 1 µg/mL
- CLR MIC + adjuvant ([4]; A. baumannii strain 5256): 0.25 µg/mL
- CLR MIC + adjuvant ([4]; A. baumannii strain 5711): 1 µg/mL
- CLR MIC + adjuvant ([4]; A. baumannii strain 8967): 0.25 µg/mL
SMILES: Cl.Nc1nc(-c2ccc(NC(=O)Nc3cc(Br)cc(Br)c3)cc2)c[nH]1 [Compound 20a, 1-(4-(2-amino-1H-imidazol-4-yl)phenyl)-3-(3,5-dibromophenyl)urea hydrochloride]
- MIC (AB5075 [2]): 50 µM
